Measurements from the supplement of paper PMC10307832.

What was measured:
Assay in all cases: relative viability (nuclei count vs DMSO), 5 days (fraction); higher = more cells survive
Carboplatin + Tozasertib = compound: C1CC(C1)(C(=O)O)C(=O)O.[NH2-].[NH2-].[Pt+2] [Carboplatin] + Cc1cc(Nc2cc(N3CCN(C)CC3)nc(Sc3ccc(NC(=O)C4CC4)cc3)n2)n[nH]1 [Tozasertib] (partner 0.1 µM)
Outline: (§1)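 Relative viability divides the nuclei count in treated wells by that in vehicle wells. Lung cancer cell lines were seeded in 1536-well plates, dosed by pin tool the next day, and fixed and stained after 5 days in one step with final 0.05% Triton X-100, 1% formaldehyde and 1 ug/ml Hoechst. Dosing was a single drug or a fixed anchor-drug dose plus five library-drug doses (not always all listed) in √10 steps, and values are medians of duplicate plates imaged at 4×.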

MLN4924 + Bortezomib = compound: NS(=O)(=O)OC[C@@H]1C[C@@H](n2ccc3c(N[C@H]4CCc5ccccc54)ncnc32)C[C@@H]1O [MLN4924] + CC(C)C[C@H](NC(=O)[C@H](Cc1ccccc1)NC(=O)c1cnccn1)B(O)O [Bortezomib] (partner 0.002 µM)
Outline: as §1

MLN4924 + Pictilisib = compound: NS(=O)(=O)OC[C@@H]1C[C@@H](n2ccc3c(N[C@H]4CCc5ccccc54)ncnc32)C[C@@H]1O [MLN4924] + CS(=O)(=O)N1CCN(Cc2cc3nc(-c4cccc5[nH]ncc45)nc(N4CCOCC4)c3s2)CC1 [Pictilisib] (partner 1 µM)
Outline: as §1

MLN4924 + Olaparib = compound: NS(=O)(=O)OC[C@@H]1C[C@@H](n2ccc3c(N[C@H]4CCc5ccccc54)ncnc32)C[C@@H]1O [MLN4924] + O=C(c1cc(Cc2n[nH]c(=O)c3ccccc23)ccc1F)N1CCN(C(=O)C2CC2)CC1 [Olaparib] (partner 8 µM)
Outline: as §1

Cell Line | relative viability (Carboplatin + Tozasertib; first compound 0.08 µM) | relative viability (Carboplatin + Tozasertib; first compound 0.253 µM) | relative viability (Carboplatin + Tozasertib; first compound 0.8 µM) | relative viability (Carboplatin + Tozasertib; first compound 2.53 µM) | relative viability (Carboplatin + Tozasertib; first compound 8 µM) | relative viability (MLN4924 + Bortezomib; first compound 0.04 µM) | relative viability (MLN4924 + Bortezomib; first compound 0.1265 µM) | relative viability (MLN4924 + Bortezomib; first compound 0.4 µM) | relative viability (MLN4924 + Bortezomib; first compound 1.265 µM) | relative viability (MLN4924 + Bortezomib; first compound 4 µM) | relative viability (MLN4924 + Pictilisib; first compound 0.04 µM) | relative viability (MLN4924 + Pictilisib; first compound 0.1265 µM) | relative viability (MLN4924 + Pictilisib; first compound 0.4 µM) | relative viability (MLN4924 + Pictilisib; first compound 1.265 µM) | relative viability (MLN4924 + Pictilisib; first compound 4 µM) | relative viability (MLN4924 + Olaparib; first compound 0.04 µM) | relative viability (MLN4924 + Olaparib; first compound 0.1265 µM) | relative viability (MLN4924 + Olaparib; first compound 0.4 µM) | relative viability (MLN4924 + Olaparib; first compound 1.265 µM) | relative viability (MLN4924 + Olaparib; first compound 4 µM)
NCI-H1993 | 0.61 | 0.643 | 0.575 | 0.593 | 0.635 | 0.856 | 0.72 | 0.664 | 0.383 | 0.474 | 0.701 | 0.681 | 0.7 | 0.647 | 0.643 | 0.776 | 0.481 | 0.652 | 0.422 | 0.426
NCI-H1944 | 0.245 | 0.247 | 0.263 | 0.24 | 0.237 |  |  |  |  |  | 0.405 | 0.38 | 0.376 | 0.182 | 0.178 | 0.405 | 0.296 | 0.304 | 0.162 | 0.139
SK-LU-1 | 0.366 | 0.293 | 0.341 | 0.346 | 0.275 | 0.856 | 0.866 | 0.293 | 0.187 | 0.28 | 0.411 | 0.505 | 0.383 | 0.171 | 0.172 | 0.493 | 0.433 | 0.256 | 0.157 | 0.172
NCI-H1915 | 0.494 | 0.455 | 0.411 | 0.364 | 0.331 | 0.982 | 0.941 | 0.815 | 0.22 | 0.187 | 0.773 | 0.81 | 0.59 | 0.215 | 0.201 | 0.314 | 0.22 | 0.221 | 0.142 | 0.129
NCI-H650 | 0.768 | 0.766 | 0.638 | 0.661 | 0.453 | 0.439 | 0.456 | 0.233 | 0.179 | 0.202 | 0.79 | 0.508 | 0.335 | 0.208 | 0.214 | 0.244 | 0.159 | 0.17 | 0.137 | 0.129
NCI-H1563 |  |  |  |  |  | 1.35 | 1.03 | 0.617 | 0.474 | 0.59 | 0.802 | 0.646 | 0.581 | 0.535 | 0.586 |  |  |  |  | 
NCI-H1703 |  |  |  |  |  | 0.117 | 0.0992 | 0.138 | 0.111 | 0.123 | 0.181 | 0.162 | 0.165 | 0.155 | 0.174 | 0.332 | 0.174 | 0.156 | 0.145 | 0.135
NCI-H1648 | 0.708 | 0.421 | 0.319 |  | 0.456 |  |  |  |  |  |  |  |  |  |  | 0.535 | 0.398 | 0.382 | 0.253 | 0.274
NCI-H1792 |  |  |  |  |  | 0.938 | 1 | 1.09 | 0.663 | 0.425 | 0.375 | 0.387 | 0.34 | 0.147 | 0.122 | 0.452 | 0.37 | 0.384 | 0.33 | 0.104
NCI-H2170 | 0.732 | 0.687 | 0.642 | 0.71 | 0.535 |  |  |  |  |  | 0.36 | 0.37 | 0.217 | 0.135 | 0.171 | 0.413 | 0.229 | 0.195 | 0.148 | 0.113
IA-LM |  |  |  |  |  | 0.381 | 0.202 | 0.0828 | 0.0567 | 0.0708 | 0.342 | 0.145 | 0.0958 | 0.0574 | 0.0645 | 0.458 | 0.297 | 0.227 | 0.0664 | 0.0734
SW 900 | 0.682 | 0.479 | 0.56 | 0.399 | 0.314 |  |  |  |  |  |  |  |  |  |  |  | 0.594 | 0.429 | 0.233 | 0.228
A549 |  |  |  |  |  |  |  |  |  |  | 0.5 | 0.474 | 0.246 | 0.0557 | 0.0729 | 0.349 | 0.28 | 0.0869 | 0.045 | 0.0539
NCI-H1299 |  |  |  |  |  | 1.01 | 0.803 | 0.402 | 0.269 | 0.225 | 0.378 | 0.398 | 0.153 | 0.0571 | 0.0769 | 0.912 | 0.667 | 0.416 | 0.201 | 0.172
NCI-H1623 | 0.445 | 0.446 | 0.484 | 0.449 | 0.402 |  |  |  |  |  |  |  |  |  |  |  |  |  |  | 
NCI-H2342 | 0.555 | 0.529 | 0.502 | 0.406 | 0.547 |  |  |  |  |  |  |  |  |  |  | 0.432 | 0.425 | 0.381 | 0.391 | 0.352
NCI-H1793 | 0.446 | 0.386 | 0.301 | 0.317 | 0.501 |  |  |  |  |  | 0.322 | 0.284 | 0.273 | 0.245 | 0.121 | 0.833 | 0.964 | 0.991 | 0.297 | 0.194
NCI-H1395 | 0.721 | 0.733 | 0.65 | 0.646 | 0.566 |  |  |  |  |  | 0.626 | 0.969 | 0.425 | 0.313 | 0.339 | 0.415 | 0.426 | 0.367 | 0.339 | 0.364
NCI-H522 | 0.63 | 0.604 | 0.547 | 0.525 | 0.528 |  |  |  |  |  |  |  |  |  |  | 0.568 | 0.495 | 0.485 | 0.288 | 0.322
EBC-1 |  |  |  |  |  | 0.403 | 0.269 | 0.17 | 0.117 | 0.142 | 0.488 | 0.372 | 0.245 | 0.11 | 0.162 | 0.558 | 0.259 | 0.134 | 0.0918 | 0.115
Calu-6 |  |  |  |  |  | 1 | 0.557 | 0.219 | 0.152 | 0.158 | 1.08 | 0.707 | 0.238 | 0.108 | 0.135 | 0.369 | 0.268 | 0.167 | 0.0976 | 0.0925
LK-2 | 0.16 | 0.168 | 0.184 | 0.163 | 0.137 |  |  |  |  |  | 0.511 | 0.503 | 0.566 | 0.254 | 0.262 | 0.4 | 0.312 | 0.234 | 0.151 | 0.137
